{
  "source": "patent US20040214851A1",
  "about": "“Compositions and methods for induction of opioid receptors” (3M Innovative Properties Company, priority 2003, published 2004)",
  "key": {"[1]": {"system": "Opioid Growth Factor Receptor (OGFr)", "test": "Induction of OGFr mRNA in human PBMCs (GeneChip microarray)", "format": "cell-based", "protocol": "(§1) Opioid receptor inducing compounds (ORICs) were dissolved in dimethyl sulfoxide (DMSO, Sigma Chemical Company) at 5 mM concentration. PBMCs were incubated for one hour in X-VIVO 20 medium (Cambrex Bio Science, Walkersville, Md.) at 37° C. in a 5% CO2 incubator prior to incubation with ORIC prepared in DMSO or with DMSO alone (as a control). The amount of DMSO was kept below 0.1% of the total incubation volume.\n(§2) PBMCs were incubated for 15, 30, 60, 120 minutes with ORIC 1. […] DMSO-treated control samples were incubated for 1 hour, 2 hours, 5 hours, 9 hours, and 16 hours.\n(§3) At the end of the specified incubation time, cells were lysed and total RNA extracted using the Qiagen RNeasy MidiKit (Qiagen, Inc., Valencia, Calif.). RNA was quantified using absorbance at 260. Quality of RNA was determined from the ratio of absorbance measured at OD260 and OD280 and from the ratio of 18S and 28S bands in RNA 6000 Nano Chip gels run on the Agilent 2100 Bioanalyzer (Agilent Technologies, Inc., Palo Alto, Calif.).\nRNA was reverse transcribed to cDNA using a Superscript cDNA synthesis kit (Invitrogen Corporation, Carlsbad, Calif.) using an HPLC-purified T7-(dT)24 primer (Genset SA, Paris, France). Labeled cRNA was prepared from double-stranded cDNA by in vitro transcription using an Enzo BioArray High Yield RNA Transcript Labeling Kit in the presence of biotin-11-CTP and biotin-16-UTP (Enzo Diagnostics, Inc., Farmingdale, N.Y.), and purified using an RNeasy MiniKit (Qiagen, Inc.). 10 or 15 μg of biotinylated cRNA were fragmented and hybridized to HG-U95A or U133A GeneChip® arrays (Affymetrix, Santa Clara, Calif.) containing probe sets representing 12,000 genes (HG-U95A) or 22,000 genes (U133A). Chips were hybridized, washed, and stained according to the Affymetrix protocols.\nImages were scanned using the Agilent Gene Array Scanner (Agilent Technologies, Inc., Palo Alto, Calif.), and processed using Affymetrix Microarray Suite (MS 4.0 or MS 5.0) software. The total fluorescence intensity of each image was scaled to 500 to enable comparison of different images. The image at each time point was analyzed relative to the appropriate control in order to calculate changes in expression for each gene. Changes in gene expression were deemed significant if the p value for detection and change in expression were <0.05."}, "[2]": {"system": "μ-opioid receptor", "test": "Induction of μ-opioid receptor mRNA in human PBMCs (GeneChip microarray)", "format": "cell-based", "protocol": "as §1, §2, §3\nRNA was reverse transcribed to cDNA using a Superscript cDNA synthesis kit (Invitrogen Corporation, Carlsbad, Calif.) using an HPLC-purified T7-(dT)24 primer (Genset SA, Paris, France). Labeled cRNA was prepared from double-stranded cDNA by in vitro transcription using an Enzo BioArray High Yield RNA Transcript Labeling Kit in the presence of biotin-11-CTP and biotin-16-UTP (Enzo Diagnostics, Inc., Farmingdale, N.Y.), and purified using an RNeasy MiniKit (Qiagen, Inc.). […]\nImages were scanned using the Agilent Gene Array Scanner (Agilent Technologies, Inc., Palo Alto, Calif.), and processed using Affymetrix Microarray Suite (MS 4.0 or MS 5.0) software. The total fluorescence intensity of each image was scaled to 500 to enable comparison of different images. The image at each time point was analyzed relative to the appropriate control in order to calculate changes in expression for each gene. […]"}, "[3]": {"system": "melanoma cell line B16-F10", "test": "B16-F10 melanoma lung tumor model in C57/BL6 mice", "format": "in vivo", "conditions": "B16-F10 i.v.", "protocol": "C57/BL6 mice are injected on Day 0 intravenously with melanoma cell line B16-F10 (5×10^5). On day 5 and lasting through day 19, mice are injected intraperitoneally every other day with either (a) PBS (control), (b) 10 mg/kg of ORIC2, (c) 10 mg/kg [Met^5]-enkephalin, or (d) both.\nOn Day 20, half the mice are sacrificed and the lungs are removed and weighed. Percent inhibition of lung tumor growth is determined according to the formula:\nPlacebo weight−Treatment weight×100 Placebo weight"}, "[4]": {"system": "lung cancer", "test": "Human subjects with lung cancer, tumor size by CT scan and survival", "format": "in vivo", "protocol": "Human subjects with lung cancer are injected intravenously with a placebo (control), ORIC5 (10 mg/kg), or both ORIC5 (10 mg/kg) and OGF (1 mg/kg) three times a week for eight weeks. Tumor size is measured by CT scan."}, "[5]": {"conditions": "human PBMCs, 5 μM ORIC 1 (FIG. 1), 1 μM ORIC 2, 5 μM ORIC 3, 0.1 μM ORIC 4, (FIG. 2)"}, "[6]": {"conditions": "human PBMCs, 1 μM ORIC 2, 5 μM ORIC 3, 0.1 μM ORIC 4, FIG. 3"}},
  "note": "Read-outs that look alike come from different tables or passages of the source.",
  "data": [
    {"compound": "CCOCc1nc2c(N)nc3c(c2n1CC(C)(C)O)CCCC3", "note": "[ORIC2, 4-amino-2-(ethoxymethyl)-α,α-dimethyl-6,7,8,9-tetrahydro-1H-imidazo[4,5-c]quinoline-1-ethanol]", "values": [
      {"measurement": "induction of OGFr (mRNA)", "setting": "[1]; [5]", "value": "induction"},
      {"measurement": "induction of the μ-opioid receptor (mRNA)", "setting": "[2]; [6]", "value": "induction"},
      {"measurement": "inhibition of tumor growth in the lung", "setting": "[3]; 10 mg/kg i.p. every other day, day 5 to 19, lungs weighed Day 20, vs placebo", "value": "increased inhibition of tumor growth in the lung"},
      {"measurement": "survival", "setting": "[3]; monitored through Day 75, vs placebo", "value": "enhanced survival"}
    ]},
    {"compound": "Cc1nc2c(N)nc3c(c2n1CCCCNC(=O)N1CCOCC1)CCCC3", "note": "[ORIC5, N-[4-(4-amino-2-methyl-6,7,8,9,-tetrahydro-1H-imidazo[4,5-c]quinolin-1-yl)butyl]morpholine-4-carboxamide]", "values": [
      {"measurement": "tumor size by CT scan", "setting": "[4]; i.v. three times a week for eight weeks, at eight weeks vs prior to treatment", "value": "measurably smaller"},
      {"measurement": "five-year survival rate", "setting": "[4]; vs control group", "value": "greater"},
      {"measurement": "induction of OGFr (mRNA)", "setting": "[1]", "value": "induction"},
      {"measurement": "induction of the μ-opioid receptor (mRNA)", "setting": "[2]", "value": "induction"}
    ]},
    {"compound": "CCCCc1nc2c(N)nc3ccccc3c2n1CCCCNS(C)(=O)=O", "note": "[ORIC4, N-[4-(4-amino-2-butyl-1H-imidazo[4,5-c]quinolin-1-yl)butyl]methanesulfonamide]", "values": [
      {"measurement": "induction of OGFr (mRNA)", "setting": "[1]; [5]", "value": "induction"},
      {"measurement": "induction of the μ-opioid receptor (mRNA)", "setting": "[2]; [6]", "value": "induction"}
    ]},
    {"compound": "CC(C)Cn1cnc2c(N)nc3ccccc3c21", "note": "[ORIC1, 1-(2-methylpropyl)-1H-imidazo[4,5-c]quinolin-4-amine]", "values": [
      {"measurement": "induction of OGFr (mRNA)", "setting": "[1]", "value": "induction"}
    ]}
  ]
}
